ChEMBL document CHEMBL1201862, “PubChem BioAssay data set” (2004)
Activity calls are given as the source filed them.

Experiments:
Format in all cases: functional
[1] = molecular target: Receptor-type tyrosine-protein kinase FLT3 (Homo sapiens, UniProt P36888);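 further: FLT3 was tested as one member of a kinome-wide kinase panel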
[2] = molecular target: Tyrosine-protein kinase JAK2 (Homo sapiens, UniProt O60674);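 further: JAK2 tested as one member of a kinase panel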
[3] = molecular target: Serine/threonine-protein kinase 3 (Homo sapiens, UniProt Q13188);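 further: measured as one member of a kinome-wide kinase panel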
[4] = molecular target: Calcium/calmodulin-dependent protein kinase type II subunit beta (Homo sapiens, UniProt Q13554)
[5] = molecular target: MAP kinase-activated protein kinase 5 (Homo sapiens, UniProt Q8IW41);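 further: measured as one member of a kinome panel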
[6] = molecular target: Calcium/calmodulin-dependent protein kinase type 1 (Homo sapiens, UniProt Q14012)
[7] = molecular target: Testis-specific serine/threonine-protein kinase 2 (Homo sapiens, UniProt Q96PF2);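 further: part of the Navigating the Kinome panel, target entry STK22B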
[8] = molecular target: Serine/threonine-protein kinase PAK 1 (Homo sapiens, UniProt Q13153)
[9] = molecular target: Serine/threonine-protein kinase D2 (Homo sapiens, UniProt Q9BZL6);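 further: measured against PRKD2 as one member of a kinome-wide kinase profiling panel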
[10] = molecular target: Tyrosine-protein kinase Srms (Homo sapiens, UniProt Q9H3Y6);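 further: SRMS measured as one member of a kinome-wide kinase profiling panel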
[11] = molecular target: Serine/threonine-protein kinase PLK1 (Homo sapiens, UniProt P53350);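 further: PLK1 measured as one member of a kinome-wide profiling panel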
[12] = molecular target: Serine/threonine-protein kinase DCLK1 (Homo sapiens, UniProt O15075);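 further: affinity for DCLK1 (listed as DCAMKL1) measured as one member of a kinome-wide kinase profiling panel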
[13] = molecular target: Testis-specific serine/threonine-protein kinase 1 (Homo sapiens, UniProt Q9BXA7)
[14] = molecular target: Insulin-like growth factor 1 receptor (Homo sapiens, UniProt P08069); experiment: Navigating the Kinome. Panel member name: IGF1R
[15] = molecular target: Cyclin-dependent kinase 5 (Homo sapiens, UniProt Q00535);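 further: CDK5 measured as one member of a kinase profiling panel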
[16] = molecular target: Macrophage-stimulating protein receptor (Homo sapiens, UniProt Q04912); experiment: Navigating the Kinome. Panel member name: MST1R
[17] = molecular target: Serine/threonine-protein kinase PAK 4 (Homo sapiens, UniProt O96013);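 further: value obtained within a kinome profiling panel in which PAK4 was one of the panel members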
[18] = molecular target: Calcium/calmodulin-dependent protein kinase type II subunit delta (Homo sapiens, UniProt Q13557)
[19] = molecular target: Megakaryocyte-associated tyrosine-protein kinase (Homo sapiens, UniProt P42679);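 further: affinity measured as one member of a kinase panel (Navigating the Kinome) against MATK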
[20] = molecular target: Ephrin type-A receptor 2 (Homo sapiens, UniProt P29317);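 further: EPHA2 tested as one member of a kinome-wide kinase panel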
[21] = molecular target: Mast/stem cell growth factor receptor Kit (Homo sapiens, UniProt P10721);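 further: KIT entry within a kinase panel assay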
[22] = molecular target: Receptor tyrosine-protein kinase erbB-2 (Homo sapiens, UniProt P04626); experiment: Navigating the Kinome. Panel member name: ERBB2
[23] = molecular target: Rho-associated protein kinase 1 (Homo sapiens, UniProt Q13464);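 further: measured within a broad kinome-wide panel profiling many kinases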
[24] = molecular target: T1, Tyrosine-protein kinase receptor TYRO3 (Homo sapiens, UniProt Q06418);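 further: TYRO3 value obtained as one member of a kinome-wide profiling panel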
T1 sequence (Q06418 whole entry): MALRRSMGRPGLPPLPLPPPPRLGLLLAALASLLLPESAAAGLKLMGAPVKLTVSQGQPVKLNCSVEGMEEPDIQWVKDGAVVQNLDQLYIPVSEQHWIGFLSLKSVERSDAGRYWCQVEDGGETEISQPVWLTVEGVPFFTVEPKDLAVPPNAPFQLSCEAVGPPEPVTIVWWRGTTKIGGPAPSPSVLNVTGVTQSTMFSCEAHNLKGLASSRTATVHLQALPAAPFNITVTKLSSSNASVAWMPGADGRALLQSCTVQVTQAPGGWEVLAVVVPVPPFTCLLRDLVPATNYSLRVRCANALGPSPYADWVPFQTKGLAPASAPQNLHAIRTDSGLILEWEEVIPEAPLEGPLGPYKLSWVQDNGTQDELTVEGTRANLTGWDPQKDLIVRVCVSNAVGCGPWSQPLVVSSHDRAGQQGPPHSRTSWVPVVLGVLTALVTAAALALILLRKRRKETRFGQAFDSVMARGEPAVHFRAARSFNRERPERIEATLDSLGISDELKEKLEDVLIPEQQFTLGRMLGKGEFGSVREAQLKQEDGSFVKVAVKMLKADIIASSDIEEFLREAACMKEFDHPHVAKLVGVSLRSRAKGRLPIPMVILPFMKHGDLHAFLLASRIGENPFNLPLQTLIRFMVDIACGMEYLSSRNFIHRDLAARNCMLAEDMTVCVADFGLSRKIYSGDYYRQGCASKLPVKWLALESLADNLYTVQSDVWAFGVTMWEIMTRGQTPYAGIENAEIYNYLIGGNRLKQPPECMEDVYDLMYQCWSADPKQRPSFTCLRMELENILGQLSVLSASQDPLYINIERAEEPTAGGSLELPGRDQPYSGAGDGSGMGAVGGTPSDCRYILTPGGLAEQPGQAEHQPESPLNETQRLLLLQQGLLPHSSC

[25] = molecular target: 3-phosphoinositide-dependent protein kinase 1 (Homo sapiens, UniProt O15530);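 further: value comes from the Navigating the Kinome panel, PDPK1 member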
[26] = molecular target: 5'-AMP-activated protein kinase catalytic subunit alpha-1 (Homo sapiens, UniProt Q13131)
[27] = molecular target: Cyclin-dependent kinase 9 (Homo sapiens, UniProt P50750);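 further: value from the CDK9 entry of a kinome-spanning kinase panel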
[28] = molecular target: T2, Aurora kinase A (Homo sapiens, UniProt O14965);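 further: value from the Navigating the Kinome kinase panel profiling, panel entry STK6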
T2 sequence (O14965 whole entry): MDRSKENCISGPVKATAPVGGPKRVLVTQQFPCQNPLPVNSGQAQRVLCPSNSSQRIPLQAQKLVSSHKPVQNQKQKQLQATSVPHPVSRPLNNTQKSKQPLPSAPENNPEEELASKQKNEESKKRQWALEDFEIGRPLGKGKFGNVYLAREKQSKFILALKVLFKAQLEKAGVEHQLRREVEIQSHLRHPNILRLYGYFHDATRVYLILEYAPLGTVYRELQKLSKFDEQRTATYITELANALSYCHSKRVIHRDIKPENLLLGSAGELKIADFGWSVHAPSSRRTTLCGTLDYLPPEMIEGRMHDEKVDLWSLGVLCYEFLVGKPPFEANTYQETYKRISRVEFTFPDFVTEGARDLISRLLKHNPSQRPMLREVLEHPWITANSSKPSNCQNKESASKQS

[29] = molecular target: Platelet-derived growth factor receptor alpha (Homo sapiens, UniProt P16234); experiment: Navigating the Kinome. Panel member name: PDGFRA
Sequence of Platelet-derived growth factor receptor alpha (P16234 whole entry): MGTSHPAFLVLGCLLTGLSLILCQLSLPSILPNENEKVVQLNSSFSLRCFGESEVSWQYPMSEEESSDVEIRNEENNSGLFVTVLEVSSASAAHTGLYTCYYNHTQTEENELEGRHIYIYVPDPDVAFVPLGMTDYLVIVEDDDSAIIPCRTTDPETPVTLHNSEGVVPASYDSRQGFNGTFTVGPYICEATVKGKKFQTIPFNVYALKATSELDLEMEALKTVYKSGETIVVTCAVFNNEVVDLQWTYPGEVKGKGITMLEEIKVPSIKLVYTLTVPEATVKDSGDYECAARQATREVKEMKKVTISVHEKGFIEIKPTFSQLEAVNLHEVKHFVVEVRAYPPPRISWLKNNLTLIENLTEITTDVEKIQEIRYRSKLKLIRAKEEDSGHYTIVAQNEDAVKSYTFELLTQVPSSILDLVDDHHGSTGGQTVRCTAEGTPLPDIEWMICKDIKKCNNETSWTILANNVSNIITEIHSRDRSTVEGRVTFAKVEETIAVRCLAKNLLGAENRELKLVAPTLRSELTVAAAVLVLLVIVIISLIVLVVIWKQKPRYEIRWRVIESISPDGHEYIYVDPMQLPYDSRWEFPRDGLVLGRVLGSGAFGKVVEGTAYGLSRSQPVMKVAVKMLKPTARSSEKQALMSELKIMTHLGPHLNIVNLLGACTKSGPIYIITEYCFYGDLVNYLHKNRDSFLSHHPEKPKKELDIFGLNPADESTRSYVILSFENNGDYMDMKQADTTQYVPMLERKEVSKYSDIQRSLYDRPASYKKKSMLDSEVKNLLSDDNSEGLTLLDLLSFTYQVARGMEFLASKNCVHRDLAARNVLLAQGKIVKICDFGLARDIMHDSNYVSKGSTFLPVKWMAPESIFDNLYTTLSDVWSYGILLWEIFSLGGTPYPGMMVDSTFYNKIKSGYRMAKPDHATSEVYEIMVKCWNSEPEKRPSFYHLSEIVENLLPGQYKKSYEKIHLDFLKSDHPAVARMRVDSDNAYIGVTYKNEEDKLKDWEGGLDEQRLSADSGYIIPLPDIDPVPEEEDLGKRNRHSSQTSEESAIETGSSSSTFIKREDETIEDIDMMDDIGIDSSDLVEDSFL

Sequence of Serine/threonine-protein kinase 3 (Q13188 whole entry): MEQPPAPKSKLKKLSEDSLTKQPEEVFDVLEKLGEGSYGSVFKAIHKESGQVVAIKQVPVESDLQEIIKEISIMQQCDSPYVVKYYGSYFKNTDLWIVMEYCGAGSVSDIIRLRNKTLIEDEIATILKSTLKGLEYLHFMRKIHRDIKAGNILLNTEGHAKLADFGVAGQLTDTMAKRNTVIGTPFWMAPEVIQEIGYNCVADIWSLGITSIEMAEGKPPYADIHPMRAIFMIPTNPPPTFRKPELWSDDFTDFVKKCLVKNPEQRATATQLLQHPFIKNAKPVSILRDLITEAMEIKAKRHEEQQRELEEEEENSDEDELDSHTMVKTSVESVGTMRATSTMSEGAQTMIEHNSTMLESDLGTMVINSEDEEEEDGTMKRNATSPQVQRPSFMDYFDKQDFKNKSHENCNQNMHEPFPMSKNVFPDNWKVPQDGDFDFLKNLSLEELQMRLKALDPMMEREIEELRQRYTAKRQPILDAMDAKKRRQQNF
Sequence of Macrophage-stimulating protein receptor (Q04912 25-304 limits assumed): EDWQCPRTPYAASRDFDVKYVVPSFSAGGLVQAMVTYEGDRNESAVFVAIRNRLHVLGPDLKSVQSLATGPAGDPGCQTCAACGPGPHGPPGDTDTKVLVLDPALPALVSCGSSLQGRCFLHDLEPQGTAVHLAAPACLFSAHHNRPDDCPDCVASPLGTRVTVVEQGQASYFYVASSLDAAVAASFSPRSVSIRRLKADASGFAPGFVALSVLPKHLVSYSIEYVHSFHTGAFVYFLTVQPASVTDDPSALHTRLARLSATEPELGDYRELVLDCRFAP
Sequence of Macrophage-stimulating protein receptor (Q04912 310-1400 limits assumed): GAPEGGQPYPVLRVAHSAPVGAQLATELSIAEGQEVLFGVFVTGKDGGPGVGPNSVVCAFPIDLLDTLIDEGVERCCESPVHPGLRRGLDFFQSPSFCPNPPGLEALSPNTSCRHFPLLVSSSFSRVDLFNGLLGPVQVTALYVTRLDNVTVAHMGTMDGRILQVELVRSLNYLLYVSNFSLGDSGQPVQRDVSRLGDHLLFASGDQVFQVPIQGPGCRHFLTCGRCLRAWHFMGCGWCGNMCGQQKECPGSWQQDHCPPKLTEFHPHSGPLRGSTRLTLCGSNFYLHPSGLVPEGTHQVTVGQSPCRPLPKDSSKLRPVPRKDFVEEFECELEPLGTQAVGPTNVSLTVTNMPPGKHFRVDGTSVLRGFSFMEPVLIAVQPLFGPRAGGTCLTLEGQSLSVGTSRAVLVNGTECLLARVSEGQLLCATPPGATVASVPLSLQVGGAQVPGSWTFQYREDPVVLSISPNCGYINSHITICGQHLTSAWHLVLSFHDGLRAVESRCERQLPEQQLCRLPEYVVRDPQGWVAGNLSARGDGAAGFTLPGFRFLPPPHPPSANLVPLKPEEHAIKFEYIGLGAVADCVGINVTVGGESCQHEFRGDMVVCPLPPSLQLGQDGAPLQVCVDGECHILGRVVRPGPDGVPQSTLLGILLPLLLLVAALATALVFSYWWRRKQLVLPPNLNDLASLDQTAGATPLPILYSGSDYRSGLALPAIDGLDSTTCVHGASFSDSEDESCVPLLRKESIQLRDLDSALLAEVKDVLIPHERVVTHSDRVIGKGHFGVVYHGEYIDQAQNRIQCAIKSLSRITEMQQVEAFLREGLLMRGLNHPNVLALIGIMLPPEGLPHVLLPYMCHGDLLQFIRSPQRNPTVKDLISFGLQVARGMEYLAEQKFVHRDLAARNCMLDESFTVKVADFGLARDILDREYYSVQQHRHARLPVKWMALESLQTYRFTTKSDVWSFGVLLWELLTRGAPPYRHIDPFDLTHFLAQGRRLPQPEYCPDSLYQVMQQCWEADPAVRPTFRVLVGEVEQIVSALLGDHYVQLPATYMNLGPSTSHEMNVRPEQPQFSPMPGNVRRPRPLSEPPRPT
Sequence of Calcium/calmodulin-dependent protein kinase type II subunit beta (Q13554 whole entry): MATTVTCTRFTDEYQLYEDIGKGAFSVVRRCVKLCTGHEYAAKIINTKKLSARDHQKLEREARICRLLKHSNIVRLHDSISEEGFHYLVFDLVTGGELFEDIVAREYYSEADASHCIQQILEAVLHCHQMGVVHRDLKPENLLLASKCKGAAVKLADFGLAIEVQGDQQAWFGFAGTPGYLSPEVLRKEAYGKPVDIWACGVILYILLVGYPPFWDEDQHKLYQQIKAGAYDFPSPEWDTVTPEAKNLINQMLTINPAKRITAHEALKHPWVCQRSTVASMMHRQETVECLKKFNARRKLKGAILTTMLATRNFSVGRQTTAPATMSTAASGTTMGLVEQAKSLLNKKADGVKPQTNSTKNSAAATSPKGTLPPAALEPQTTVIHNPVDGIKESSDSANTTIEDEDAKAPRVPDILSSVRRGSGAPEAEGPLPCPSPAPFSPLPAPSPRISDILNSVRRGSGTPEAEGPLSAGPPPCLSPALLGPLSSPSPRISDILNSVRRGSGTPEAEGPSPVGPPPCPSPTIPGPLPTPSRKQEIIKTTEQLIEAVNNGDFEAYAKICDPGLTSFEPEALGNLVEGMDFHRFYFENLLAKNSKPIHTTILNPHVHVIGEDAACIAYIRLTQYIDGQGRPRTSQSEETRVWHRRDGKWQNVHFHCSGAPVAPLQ
Sequence of Tyrosine-protein kinase Srms (Q9H3Y6 whole entry): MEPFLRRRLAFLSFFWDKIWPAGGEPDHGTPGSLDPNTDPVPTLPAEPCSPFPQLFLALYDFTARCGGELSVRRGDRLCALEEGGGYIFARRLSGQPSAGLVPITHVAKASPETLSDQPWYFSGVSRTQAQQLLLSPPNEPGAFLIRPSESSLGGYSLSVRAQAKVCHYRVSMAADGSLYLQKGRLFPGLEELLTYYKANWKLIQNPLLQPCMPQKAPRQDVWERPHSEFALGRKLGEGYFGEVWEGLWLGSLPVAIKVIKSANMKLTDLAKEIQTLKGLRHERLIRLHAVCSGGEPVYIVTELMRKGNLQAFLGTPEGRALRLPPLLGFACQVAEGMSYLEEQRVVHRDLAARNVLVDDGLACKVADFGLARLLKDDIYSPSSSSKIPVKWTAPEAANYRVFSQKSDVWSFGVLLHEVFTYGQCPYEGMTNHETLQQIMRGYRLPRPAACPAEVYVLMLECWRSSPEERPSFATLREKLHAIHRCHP
Sequence of Serine/threonine-protein kinase PLK1 (P53350 whole entry): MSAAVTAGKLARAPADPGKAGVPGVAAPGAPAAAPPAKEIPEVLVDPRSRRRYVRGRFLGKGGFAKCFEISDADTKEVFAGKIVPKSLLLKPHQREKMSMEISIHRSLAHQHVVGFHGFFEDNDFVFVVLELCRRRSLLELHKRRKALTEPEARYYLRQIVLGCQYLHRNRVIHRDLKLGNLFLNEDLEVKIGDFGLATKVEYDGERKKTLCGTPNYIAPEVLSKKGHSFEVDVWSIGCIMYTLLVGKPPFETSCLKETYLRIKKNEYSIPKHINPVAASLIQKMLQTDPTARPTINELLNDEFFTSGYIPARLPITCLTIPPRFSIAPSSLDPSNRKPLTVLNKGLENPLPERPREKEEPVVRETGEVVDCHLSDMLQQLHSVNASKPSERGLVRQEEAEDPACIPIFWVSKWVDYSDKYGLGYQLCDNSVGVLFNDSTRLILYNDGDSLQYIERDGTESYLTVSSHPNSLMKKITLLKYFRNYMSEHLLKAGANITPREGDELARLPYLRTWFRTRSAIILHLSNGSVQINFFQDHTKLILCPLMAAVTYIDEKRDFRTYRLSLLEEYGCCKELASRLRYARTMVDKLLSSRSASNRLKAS
Sequence of Cyclin-dependent kinase 5 (Q00535 whole entry): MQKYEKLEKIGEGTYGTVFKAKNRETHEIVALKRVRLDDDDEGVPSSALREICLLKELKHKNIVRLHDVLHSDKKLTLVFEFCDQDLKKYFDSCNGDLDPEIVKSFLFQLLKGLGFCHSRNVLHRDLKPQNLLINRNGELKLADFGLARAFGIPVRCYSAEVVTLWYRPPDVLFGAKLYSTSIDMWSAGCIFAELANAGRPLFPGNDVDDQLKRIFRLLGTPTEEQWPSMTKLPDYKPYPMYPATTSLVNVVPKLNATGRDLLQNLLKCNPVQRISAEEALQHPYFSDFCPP

Row | Ki [11] | Ki [15] | Compound | Ki [1] | Ki [2] | Ki [3] | Ki [4] | Ki [5] | Ki [6] | Ki [7] | Ki [8] | Ki [9] | Ki [10] | Ki [12] | Ki [13] | Ki [14] | Ki [16] | Ki [17] | Ki [18] | Ki [19] | Ki [20] | further results
1 | > 7.94 µM (inactive) | 0.316 µM (active) | Cc1ccc2nccc(NC(=O)Nc3cccc(C(F)(F)F)n3)c2c1 | 251 nM (active) | > 2 µM (inactive) | 158 nM (active) | > 7.94 µM (inactive) | > 1.58 µM (inactive) | > 3.16 µM (inactive) | > 1.58 µM (inactive) | > 10 µM (inactive) | > 10 µM (inactive) | > 1.58 µM (inactive) | > 10 µM (inactive) | > 1.58 µM (inactive) | > 2 µM (inactive) | 2.51 µM (active) | > 5.01 µM (inactive) | > 6.31 µM (inactive) | > 2 µM (inactive) | > 3.16 µM (inactive) | Ki [21]: > 3.16 µM (inactive); Ki [22]: > 1.58 µM (inactive); Ki [23]: > 6.31 µM (inactive); Ki [24]: > 2.51 µM (inactive); Ki [25]: > 3.98 µM (inactive); Ki [26]: > 2.51 µM (inactive)
2 | > 79.4 µM (inactive) | 79.4 µM (active) | Cc1nn(C)c2sc3c(=O)[nH]cnc3c12 | – | – | – | – | – | – | – | – | – | – | – | – | – | – | – | – | – | – | Ki [27]: > 63.1 µM (inactive); Ki [28]: > 63.1 µM (inactive); Ki [29]: 100 µM (active)
3 | – | – | COc1cc2c(cc1F)C(c1ccccc1Cl)=Nc1c(n[nH]c1C)N2 [RG-1530] | 79.4 nM (active) | 0.126 µM (active) | 39.8 nM (active) | > 7.94 µM (inactive) | > 1.58 µM (inactive) | > 3.16 µM (inactive) | 1 µM (active) | 0.316 µM (active) | > 10 µM (inactive) | > 1.58 µM (inactive) | > 10 µM (inactive) | > 1.58 µM (inactive) | > 1.26 µM (inactive) | 0.0398 µM (active) | 0.0794 µM (active) | > 6.31 µM (inactive) | > 2 µM (inactive) | 0.0501 µM (active) | Ki [27]: > 1.58 µM (inactive); Ki [28]: 0.0251 µM (active); Ki [29]: 0.316 µM (active); Ki [21]: 0.2 µM (active); Ki [22]: > 1.58 µM (inactive); Ki [23]: > 2.51 µM (inactive); Ki [24]: > 2.51 µM (inactive); Ki [25]: 0.0501 µM (active); Ki [26]: 0.631 µM (active)
